Results: US20220017566A1, “TERPINOID DERIVATIVES AND USES THEREOF” (SICHUAN HAISCO PHARMACEUTICAL CO., LTD., priority 2018, published 2022)
Read-outs that look alike come from different tables or passages of the source.

What was measured:
[1] = test system: NQO1; test: NQO1 activity assay in Raw264.7 cell lysates; type: cell-based; details: Mus musculus; Raw264.7 cells, 48 hours treatment
Description: Raw264.7 cells were seeded in DMEM+10% FBS in 96-well plates at a density of 10,000 cells per well. 6 hours after plating, cells were treated with DMSO or test compounds (top dose 100 nM, 1:4 serial dilution, 8-point) for 48 hours. NQO1 activity was then detected in cell lysates using NQO1 activity assay kit (Abeam, Cat#ab184867). NQO1 activity was then plotted against compound concentration, and EC50 values were calculated using four-parameter algorithm in Graphpad Prism.

[2] = Pharmacokinetic studies in Sprague Dawley rats (oral gavage and IV); type: in vivo; details: rat, male SD rats, plasma; for AUC(0-t): read-out: AUC0-24 h; for bioavailability: oral 5 mg/kg vs IV 1 mg/kg, read-out: Bioavailibility F %
Description: The pharmacokinetics of test compounds was evaluated in male SD rats when administered via oral gavage and IV injection. For oral dosing, compound was formulated in 0.5% methylcellulose and administered at doses of 5 mg/kg (3 rats per dose level) and volume of 10 mL/kg. For IV dosing, compound was formulated in 5% DMSO/5% Solutol/90% saline and administered to 3 rats at a dose of 1 mg/kg and a volume of 5 mL/kg. The rats were fasted overnight before administration. Plasma samples were collected predose and at 0.5, 1, 3, 6, 9, 12, and 24 hours postdose. The samples were analyzed by LC/MS/MS and the concentration of test compound at each timepoint was determined by linear regression. Pharmacokinetic parameters were calculated from the plasma concentrations using Pheonix WinNonlin.

[3] = Metabolic stability in rat liver microsomes; type: in vitro ADME; details: Sprague Dawley
Description: (§1) The metabolic stability of test compounds was examined in CD-1 mouse, Sprague Dawley rat, Beagle dog, cynomolgus monkey, and human liver microsomes. Test compound (final concentration 1 μM) was mixed with diluted liver microsomes from each of the 5 species and a small aliquot was taken at 0, 5, 10, 20, 30, and 60 minutes for LC/MS/MS analysis. Intrinsic clearance and half-life were calculated.

[4] = test system: IFNγ-induced NO production in Raw 264.7 cells; test: Nitric oxide assay: suppression of IFNγ-induced NO production (Griess nitrite, adjusted to live cell numbers); type: cell-based; details: Mus musculus, RAW264.7, 2 h pretreatment, IFNγ 10 ng/ml for 24 hours
In short: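 Raw 264.7 cells in DMEM + 2% FBS were pretreated 2 h with compound (10-point, 1:4 dilution from 100 nM), then stimulated with 10 ng/ml mouse IFNγ for 24 h. Media nitrite was read by Griess and normalised to CellTiter-Glo viability. IC50 from four-parameter fit of % inhibition.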

[5] = Metabolic stability in dog liver microsomes; type: in vitro ADME; details: Beagle
Description: as §1

[6] = Metabolic stability in mouse liver microsomes; type: in vitro ADME, CD-1 mouse; details: CD-1
Description: as §1

[7] = target: T1, CYP2D6 (Homo sapiens, UniProt P10635); test: CYP450 enzyme inhibition in liver microsomes (cocktail probe incubation); type: in vitro ADME; details: species not given, 0.05-50 μM tested
T1 construct: studied in liver microsomes of CD-1 mouse, Sprague Dawley rat, Beagle dog, cynomolgus monkey, and human; from tissue; host or cells: liver microsomes
T1 sequence (P10635 whole entry): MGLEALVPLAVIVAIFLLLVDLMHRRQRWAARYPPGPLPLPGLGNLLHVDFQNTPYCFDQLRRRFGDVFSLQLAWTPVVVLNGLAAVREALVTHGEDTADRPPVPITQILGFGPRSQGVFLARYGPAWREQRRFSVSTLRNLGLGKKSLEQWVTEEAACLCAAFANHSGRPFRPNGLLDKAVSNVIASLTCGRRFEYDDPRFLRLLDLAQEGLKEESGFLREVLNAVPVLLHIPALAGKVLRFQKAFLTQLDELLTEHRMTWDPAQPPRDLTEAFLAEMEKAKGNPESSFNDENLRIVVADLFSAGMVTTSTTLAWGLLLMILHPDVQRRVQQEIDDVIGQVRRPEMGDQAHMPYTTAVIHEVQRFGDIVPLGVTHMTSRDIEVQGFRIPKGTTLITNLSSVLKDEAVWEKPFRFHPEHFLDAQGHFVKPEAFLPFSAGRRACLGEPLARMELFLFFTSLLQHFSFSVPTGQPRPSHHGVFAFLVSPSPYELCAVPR
In short: (§2)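 Liver microsomes (CD-1 mouse, SD rat, Beagle dog, cynomolgus monkey, human) incubated with a cocktail of CYP-specific probe substrates. Test compounds at seven concentrations (0.05, 0.15, 0.5, 1.5, 5, 15, 50 μM). Known inhibitors included as positive controls at a single concentration above their IC50.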

[8] = target: T2, CYP2C19 (Homo sapiens, UniProt P33261); test: as above; type: in vitro ADME; details: species not given, 0.05-50 μM tested
T2 construct: studied in liver microsomes of CD-1 mouse, Sprague Dawley rat, Beagle dog, cynomolgus monkey, and human; from tissue; host or cells: liver microsomes
T2 sequence (P33261 whole entry): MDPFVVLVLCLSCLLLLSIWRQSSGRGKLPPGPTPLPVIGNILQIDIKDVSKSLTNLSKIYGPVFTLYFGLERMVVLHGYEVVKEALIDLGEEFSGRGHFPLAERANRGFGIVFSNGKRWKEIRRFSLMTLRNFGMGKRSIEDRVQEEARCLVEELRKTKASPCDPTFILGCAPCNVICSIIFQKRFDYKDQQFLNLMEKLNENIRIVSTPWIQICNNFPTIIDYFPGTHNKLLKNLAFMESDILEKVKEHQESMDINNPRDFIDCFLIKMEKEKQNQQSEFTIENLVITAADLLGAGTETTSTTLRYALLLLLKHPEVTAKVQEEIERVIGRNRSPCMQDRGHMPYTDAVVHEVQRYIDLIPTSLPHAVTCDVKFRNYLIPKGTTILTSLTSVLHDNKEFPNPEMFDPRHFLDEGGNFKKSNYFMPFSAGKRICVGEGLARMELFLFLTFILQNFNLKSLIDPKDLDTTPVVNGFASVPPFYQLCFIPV
In short: as §2

[9] = target: T3, CYP3A4 (Homo sapiens, UniProt P08684); test: as above; type: in vitro ADME; details: species not given, 0.05-50 μM tested
T3 construct: studied in liver microsomes of CD-1 mouse, Sprague Dawley rat, Beagle dog, cynomolgus monkey, and human; from tissue; host or cells: liver microsomes
T3 sequence (P08684 whole entry): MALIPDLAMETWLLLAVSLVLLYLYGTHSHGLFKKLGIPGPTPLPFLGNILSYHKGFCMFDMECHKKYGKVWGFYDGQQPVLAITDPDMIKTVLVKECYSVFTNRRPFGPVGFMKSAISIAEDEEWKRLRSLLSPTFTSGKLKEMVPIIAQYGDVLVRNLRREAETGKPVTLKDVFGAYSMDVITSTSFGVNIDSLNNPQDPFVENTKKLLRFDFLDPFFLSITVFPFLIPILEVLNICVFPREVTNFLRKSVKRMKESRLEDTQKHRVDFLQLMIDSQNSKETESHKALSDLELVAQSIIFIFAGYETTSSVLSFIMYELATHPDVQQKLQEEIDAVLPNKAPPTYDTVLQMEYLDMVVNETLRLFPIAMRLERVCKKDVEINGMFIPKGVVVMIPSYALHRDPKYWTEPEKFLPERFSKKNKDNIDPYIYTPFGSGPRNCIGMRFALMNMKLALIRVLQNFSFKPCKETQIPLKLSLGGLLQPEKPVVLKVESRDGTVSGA
In short: as §2

[10] = target: T4, CYP1A2 (Homo sapiens, UniProt P05177); test: as above; type: in vitro ADME; details: species not given, 0.05-50 μM tested
T4 construct: studied in liver microsomes of CD-1 mouse, Sprague Dawley rat, Beagle dog, cynomolgus monkey, and human; from tissue; host or cells: liver microsomes
T4 sequence (P05177 1-516): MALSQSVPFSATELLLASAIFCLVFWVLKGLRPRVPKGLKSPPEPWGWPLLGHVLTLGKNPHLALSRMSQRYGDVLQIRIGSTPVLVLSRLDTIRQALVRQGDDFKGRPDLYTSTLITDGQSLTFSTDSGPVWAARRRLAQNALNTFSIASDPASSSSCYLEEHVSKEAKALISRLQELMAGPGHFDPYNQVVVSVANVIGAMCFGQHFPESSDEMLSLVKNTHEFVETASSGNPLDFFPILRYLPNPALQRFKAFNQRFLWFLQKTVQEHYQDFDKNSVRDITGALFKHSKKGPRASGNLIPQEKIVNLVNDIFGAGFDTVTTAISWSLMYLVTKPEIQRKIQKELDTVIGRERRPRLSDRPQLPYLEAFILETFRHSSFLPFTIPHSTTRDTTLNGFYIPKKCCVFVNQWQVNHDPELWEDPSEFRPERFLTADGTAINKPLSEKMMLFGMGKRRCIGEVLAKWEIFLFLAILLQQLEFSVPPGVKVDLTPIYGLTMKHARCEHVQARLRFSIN
In short: as §2

[11] = target: T5, CYP2C9 (Homo sapiens, UniProt P11712); test: as above; type: in vitro ADME; details: species not given, 0.05-50 μM tested
T5 construct: studied in liver microsomes of CD-1 mouse, Sprague Dawley rat, Beagle dog, cynomolgus monkey, and human; from tissue; host or cells: liver microsomes
T5 sequence (P11712 whole entry): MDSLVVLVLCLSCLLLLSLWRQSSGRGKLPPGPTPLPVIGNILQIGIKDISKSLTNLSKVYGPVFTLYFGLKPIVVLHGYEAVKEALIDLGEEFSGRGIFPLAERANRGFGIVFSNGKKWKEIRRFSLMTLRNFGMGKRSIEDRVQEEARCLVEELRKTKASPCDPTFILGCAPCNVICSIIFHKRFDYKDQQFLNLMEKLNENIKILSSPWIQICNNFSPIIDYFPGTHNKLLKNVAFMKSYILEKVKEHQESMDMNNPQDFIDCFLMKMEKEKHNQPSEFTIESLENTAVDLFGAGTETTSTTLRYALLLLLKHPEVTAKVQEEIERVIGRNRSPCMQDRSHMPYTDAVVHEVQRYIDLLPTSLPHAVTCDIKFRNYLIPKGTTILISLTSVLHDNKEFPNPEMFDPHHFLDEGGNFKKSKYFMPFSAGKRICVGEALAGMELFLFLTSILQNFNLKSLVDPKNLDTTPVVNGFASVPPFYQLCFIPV
In short: as §2

[12] = Metabolic stability in monkey liver microsomes; type: in vitro ADME, cynomolgus monkey
Description: as §1

[13] = Metabolic stability in human liver microsomes; type: in vitro ADME
Description: as §1

COC(=O)[C@]12CCC(C)(C)C[C@H]1[C@H]1C(=O)C=C3[C@@]4(C)C=C(C#N)C(=O)C(C)(C)[C@@H]4CC[C@@]3(C)[C@]1(C)CC2 [Control, reference compound]
EC50 [1]: < 10 nM | C0 ([2]; IV (1 mg/kg)): 365 ng/mL | clearance ([2]; IV (1 mg/kg)): 56.8 mL/min/kg | half-life ([2]; IV (1 mg/kg)): 378 min | AUC(0-t) ([2]; IV (1 mg/kg)): 291 ng·h/mL | Cmax ([2]; Oral (5 mg/kg)): 7 ng/mL | half-life ([2]; Oral (5 mg/kg)): 204 min | AUC(0-t) ([2]; Oral (5 mg/kg)): 26 ng·h/mL | bioavailability [2]: 1.8% | CLint scaled at 1 μM [3]: 832 mL/min/kg | half-life at 1 μM [3]: 3 min | IC50 [4]: < 10 nM | CLint scaled at 1 μM [5]: 78 mL/min/kg | half-life at 1 μM [5]: 25.6 min | CLint scaled at 1 μM [6]: 180 mL/min/kg | half-life at 1 μM [6]: 30.6 min | IC50 [7]: > 50000 nM | IC50 [8]: 5200 nM | IC50 [9]: 2600 nM | IC50 [10]: > 50000 nM | IC50 [11]: 1700 nM | CLint scaled at 1 μM [12]: 949 mL/min/kg | half-life at 1 μM [12]: 2 min | CLint scaled at 1 μM [13]: 95.4 mL/min/kg | half-life at 1 μM [13]: 13.1 min

Cc1nnc([C@@]2(C)CC[C@]3(C)CC[C@]4(C)[C@H](C(=O)C=C5[C@@]6(C)C=C(C#N)C(=O)C(C)(C)[C@@H]6CC[C@]54C)[C@@H]3C2)o1 [Example 1, (4aR,6aS,6bR,8aS,11S,12aS,12bR,14bS)-4,4,6a,6b,8a,11,14b-heptamethyl-11-(5-methyl-1,3,4-oxadiazol-2-yl)-3,13-dioxo-3,4,4a,5,6,6a,6b,7,8,8a,9,10,11,12,12a,12b,13,14b-octadecahydropicene-2-carbonitrile]
EC50 [1]: < 10 nM | C0 ([2]; IV (1 mg/kg)): 349 ng/mL | clearance ([2]; IV (1 mg/kg)): 63.8 mL/min/kg | half-life ([2]; IV (1 mg/kg)): 102 min | AUC(0-t) ([2]; IV (1 mg/kg)): 258 ng·h/mL | Cmax ([2]; Oral (5 mg/kg)): 170 ng/mL | half-life ([2]; Oral (5 mg/kg)): 132 min | AUC(0-t) ([2]; Oral (5 mg/kg)): 1100 ng·h/mL | bioavailability [2]: 83.8% | CLint scaled at 1 μM [3]: 42 mL/min/kg | half-life at 1 μM [3]: 59.4 min | IC50 [4]: < 10 nM | CLint scaled at 1 μM [5]: 37 mL/min/kg | half-life at 1 μM [5]: 54 min | CLint scaled at 1 μM [6]: 423 mL/min/kg | half-life at 1 μM [6]: 13 min | IC50 [7]: 15000 nM | IC50 [8]: 11800 nM | IC50 [9]: 1000 nM | IC50 [10]: > 50000 nM | IC50 [11]: 2700 nM | CLint scaled at 1 μM [12]: 269 mL/min/kg | half-life at 1 μM [12]: 7 min | CLint scaled at 1 μM [13]: 168 mL/min/kg | half-life at 1 μM [13]: 7.4 min

CC(=NC#N)NC[C@]12CCC(C)(C)C[C@H]1[C@H]1C(=O)C=C3[C@@]4(C)C=C(C#N)C(=O)C(C)(C)[C@@H]4CC[C@@]3(C)[C@]1(C)CC2 [Example 4, N′-cyano-N-(((4aS,6aR,6bS,8aR,12aS,14aR,14bS)-11-cyano-2,2,6a,6b,9,9,12a-heptamethyl-10,14-dioxo-1,3,4,5,6,6a,6b,7,8,8a,9,10,12a,14,14a,14b-hexadecahydropicen-4a(2H)-yl)methyl)acetimidamide]
EC50 [1]: 10 to 100 nM | C0 ([2]; IV (1 mg/kg)): 747 ng/mL | clearance ([2]; IV (1 mg/kg)): 50.9 mL/min/kg | half-life ([2]; IV (1 mg/kg)): 192 min | AUC(0-t) ([2]; IV (1 mg/kg)): 292 ng·h/mL | Cmax ([2]; Oral (5 mg/kg)): 51 ng/mL | half-life ([2]; Oral (5 mg/kg)): 174 min | AUC(0-t) ([2]; Oral (5 mg/kg)): 214 ng·h/mL | bioavailability [2]: 14.6% | CLint scaled at 1 μM [3]: 38.8 mL/min/kg | half-life at 1 μM [3]: 64.3 min | IC50 [4]: < 10 nM | CLint scaled at 1 μM [5]: 101 mL/min/kg | half-life at 1 μM [5]: 19.7 min | CLint scaled at 1 μM [6]: 147 mL/min/kg | half-life at 1 μM [6]: 37.3 min | IC50 [7]: 2200 nM | IC50 [8]: 4500 nM | IC50 [9]: 3300 nM | IC50 [10]: > 50000 nM | IC50 [11]: 1600 nM | CLint scaled at 1 μM [12]: 104 mL/min/kg | half-life at 1 μM [12]: 18.1 min | CLint scaled at 1 μM [13]: 34.2 mL/min/kg | half-life at 1 μM [13]: 36.5 min

CC1(C)C(=O)C(C#N)=C[C@]2(C)C3=CC(=O)[C@@H]4[C@@H]5C[C@@](C)(c6nnc(C(N)=O)o6)CC[C@]5(C)CC[C@@]4(C)[C@]3(C)CC[C@@H]12 [Example 25, 5-((2S,4aS,6aR,6bS,8aR,12aS,14aR,14bS)-11-cyano-2,4a,6a,6b,9,9,12a-heptamethyl-10,14-dioxo-1,2,3,4,4a,5,6,6a,6b,7,8,8a,9,10,12a,14,14a,14b-octadecahydropicen-2-yl)-1,3,4-oxadiazole-2-carboxamide]
EC50 [1]: 10 to 100 nM | C0 ([2]; IV (1 mg/kg)): 1300 ng/mL | clearance ([2]; IV (1 mg/kg)): 63.3 mL/min/kg | half-life ([2]; IV (1 mg/kg)): 84 min | AUC(0-t) ([2]; IV (1 mg/kg)): 263 ng·h/mL | Cmax ([2]; Oral (5 mg/kg)): 32 ng/mL | half-life ([2]; Oral (5 mg/kg)): 78 min | AUC(0-t) ([2]; Oral (5 mg/kg)): 102 ng·h/mL | bioavailability [2]: 7.8% | CLint scaled at 1 μM [3]: 87.2 mL/min/kg | half-life at 1 μM [3]: 28.6 min | IC50 [4]: < 10 nM | CLint scaled at 1 μM [5]: 58.4 mL/min/kg | half-life at 1 μM [5]: 34.2 min | CLint scaled at 1 μM [6]: 289 mL/min/kg | half-life at 1 μM [6]: 19 min | IC50 [7]: > 50000 nM | IC50 [8]: > 50000 nM | IC50 [9]: 6600 nM | IC50 [10]: > 50000 nM | IC50 [11]: 6900 nM | CLint scaled at 1 μM [12]: 294 mL/min/kg | half-life at 1 μM [12]: 6.4 min | CLint scaled at 1 μM [13]: 96.2 mL/min/kg | half-life at 1 μM [13]: 13 min
